ChEMBL document CHEMBL4665851, “Design, synthesis, antimycobacterial activity and molecular docking studies of novel 3- (N-substituted glycinamido) benzoic acid analogues as anti tubercular agents” (Bioorg Med Chem Lett, 2020)
In brackets after ≈: the same amount, converted by molar mass.

Key:
Settings in all cases: time 5.0 day
[1] = tested on: Mycobacterium tuberculosis H37Rv; assay: Inhibition of MmA1 in Mycobacterium tuberculosis H37Rv assessed as reduction in bacterial growth incubated for 5 days by MABA assay
[2] = tested on: Mycobacterium tuberculosis H37Rv; assay: Potency index, ratio of pyrazinamide MIC to test compound MIC for Inhibition of MmA1-mediated antitubercular activity against Mycobacterium tuberculosis H37Rv incubated for 5 days by MABA assay
[3] = tested on: Mycobacterium tuberculosis H37Rv; assay: Potency index, ratio of streptomycin MIC to test compound MIC for Inhibition of MmA1-mediated antitubercular activity against Mycobacterium tuberculosis H37Rv incubated for 5 days by MABA assay
[4] = tested on: Mycobacterium tuberculosis H37Rv; assay: Potency index, ratio of ciprofloxacin MIC to test compound MIC for Inhibition of MmA1-mediated antitubercular activity against Mycobacterium tuberculosis H37Rv incubated for 5 days by MABA assay

SMILES	MIC [1]	Ratio [2]	Ratio [3]	Ratio [4]
O=C(CNc1ccc(Br)cc1)Nc1cccc(C(=O)O)c1	3.12 µg/mL (≈ 8.94 µM)	–	–	–
O=C(CNc1ccccc1)Nc1cccc(C(=O)O)c1	6.25 µg/mL (≈ 23.1 µM)	–	–	–
O=C(CN1CCOCC1)Nc1cccc(C(=O)Nc2ccc3[nH]cnc(=O)c3c2)c1	100 µg/mL (≈ 245 µM)	–	–	–
O=C(CN1CCCCC1)Nc1cccc(C(=O)O)c1	1.6 µg/mL (≈ 6.1 µM)	> 2	> 2	> 2
CN1CCN(CC(=O)Nc2cccc(C(=O)O)c2)CC1	1.6 µg/mL (≈ 5.77 µM)	> 2	> 2	> 2
O=C(CN1CCOCC1)Nc1cccc(C(=O)O)c1	25 µg/mL (≈ 94.6 µM)	–	–	–
O=C(O)c1cn(C2CC2)c2cc(N3CCNCC3)c(F)cc2c1=O	3.12 µg/mL (≈ 9.42 µM)	–	–	–
O=C(CNc1ccc(F)cc1F)Nc1cccc(C(=O)O)c1	1.6 µg/mL (≈ 5.22 µM)	> 2	> 2	> 2
O=C(CNc1ccc(Cl)cc1)Nc1cccc(C(=O)O)c1	6.25 µg/mL (≈ 20.5 µM)	–	–	–
O=C(CNc1ccccn1)Nc1cccc(C(=O)O)c1	12.5 µg/mL (≈ 46.1 µM)	–	–	–
CN[C@@H]1[C@H](O[C@H]2[C@H](O[C@H]3[C@H](O)[C@@H](O)[C@H](N=C(N)N)[C@@H](O)[C@@H]3N=C(N)N)O[C@@H](C)[C@]2(O)C=O)O[C@@H](CO)[C@H](O)[C@H]1O	6.25 µg/mL (≈ 10.7 µM)	–	–	–
O=C(CN1CCN(Cc2ccccc2)CC1)Nc1cccc(C(=O)O)c1	3.12 µg/mL (≈ 8.83 µM)	–	–	–
O=C(CN1CCN(c2ccccc2)CC1)Nc1cccc(C(=O)O)c1	1.6 µg/mL (≈ 4.71 µM)	> 2	> 2	> 2
O=C(Cn1ccnc1)Nc1cccc(C(=O)O)c1	12.5 µg/mL (≈ 51 µM)	–	–	–
NC(=O)c1cnccn1	3.12 µg/mL (≈ 25.3 µM)	–	–	–
CCN(CC)CC(=O)Nc1cccc(C(=O)O)c1	3.12 µg/mL (≈ 12.5 µM)	–	–	–
O=C(CN1CCCC1)Nc1cccc(C(=O)O)c1	1.6 µg/mL (≈ 6.44 µM)	> 2	> 2	> 2
Cc1ccc(NCC(=O)Nc2cccc(C(=O)O)c2)cc1	6.25 µg/mL (≈ 22 µM)	–	–	–
